Results as given in patent US7238813B2, “Chemical compounds” (Smithkline Beecham Corporation, priority 2000, dated 2007).

Assays:
[1] = molecular target: T1, GST-TIE2 (intracellular domains of human TIE2) (Homo sapiens, UniProt Q02763); assay: TIE-2 enzyme assay (TIE2-E), LANCE method; type: biochemical; details: 80 uM ATP
T1 construct: made in house
Description: TIE-2Enzyme Assay (TIE2-E)
The TIE-2 enzyme assay used the LANCE method (Wallac) and GST-TIE2, baculovirus expressed recombinant constructs of the intracellular domains of human TIE2 (amino acids 762–1104, GenBank Accession # L06139) tagged by GST). […] This peptide phosphorylation was detected using the following procedure: for enzyme preactivation, GST-TIE2 was incubated for 30 mins at room temperature with 2 mM ATP, 5 mM MgCl2 and 12.5 mM DTT in 22.5 mM HEPES buffer (pH7.4). Preactivated GST-TIE2 was incubated for 30 mins at room temperature in 96 well plates with 1 μM D1-15 peptide, 80 uM ATP, 10 mM MgCl2, 0.1 mg/ml BSA and the test compound (diluted from a 10 mM stock in DMSO, final DMSO concentration was 2.4%) in 1 mM HEPES (pH7.4). The reaction was stopped by the addition of EDTA (final concentration 45 mM). Streptavidin linked-APC (allophycocyanin, Molecular Probe) and Europium-labeled anti-phosphorylated tyrosine antibody (Wallac) were then added at the final concentration of 17 μg/well and 2.1 μg/well, respectively. The APC signal was measured using an ARVO multilabel counter. (Wallac Berthold Japan). The percent inhibition of activity was calculated relative to blank control wells. The concentration of test compound that inhibits 50% of activity (IC50) was interpolated using nonlinear regression (Levernberg-Marquardt) and the equation, y=Vmax (1−x/(K+x))+Y2, where “K” was equal to the IC50. The IC50 values were converted to pIC50 values, i.e., −log IC50 in Molar concentration.

[2] = molecular target: T2, TIE2 intracellular domain/c-fms extracellular domain (TIE2/c-fms) chimeric protein expressing mouse 3T3 cells (Homo sapiens, UniProt Q02763); assay: TIE-2 autophosphorylation assay (TIE2-C), ELISA; type: cell-based; details: TIE2/c-fms 3T3 cells, MCSF activation
T2 construct: a TIE2 intracellular domain/c-fms extracellular domain (TIE2/c-fms) chimeric protein; expressed in transfected cells; host or cells: mouse 3T3 cells
T2 sequence (Q02763 770-1124 limits assumed, change not shown): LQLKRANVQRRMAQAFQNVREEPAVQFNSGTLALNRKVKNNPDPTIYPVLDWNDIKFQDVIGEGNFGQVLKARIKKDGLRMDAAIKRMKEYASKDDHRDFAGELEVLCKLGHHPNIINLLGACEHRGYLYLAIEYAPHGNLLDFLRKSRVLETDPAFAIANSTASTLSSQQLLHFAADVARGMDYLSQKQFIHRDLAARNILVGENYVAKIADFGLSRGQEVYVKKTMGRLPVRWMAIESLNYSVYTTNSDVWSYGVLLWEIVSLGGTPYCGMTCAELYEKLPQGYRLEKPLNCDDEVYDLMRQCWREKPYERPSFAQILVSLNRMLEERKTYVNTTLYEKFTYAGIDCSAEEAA
Description: TIE-2 Autophosphorylation Assay (TIE2-C)
The TIE-2 autophosphorylation assay used an ELISA method and a TIE2 intracellular domain/c-fms extracellular domain (TIE2/c-fms) chimeric protein expressing mouse 3T3 cells. This assay measured the autophosphorylation level of TIE2 protein expressed in cells. The cells were cultured in high glucose DMEM (Sigma) containing 10% serum at 37° C. in a humidified 10% CO2, 90% air incubator. The test compound (diluted from a 10 mM stock in DMSO, final DMSO concentration was 0.1%) was incubated with TIE2/c-fms expressing cells for 1 hr in serum free DMEM in 96 well plates followed by the activation of TIE2/c-fms receptor using c-fms ligand, MCSF (macrophage colony stimulating factor). The culture media was removed by aspiration and the cells incubated for at least 30 mins on ice with lysis buffer containing 137 mM NaCl, 2 mM EDTA, 10% glycerol, […] sodium ortho vanadate and complete protease inhibitor cocktail (Roche) in 20 mM Tris-HCl (pH8.0). The cell extracts were transferred into Rat anti-c-fms antibody coated 96 well plates and incubated for 12 hrs at 4° C. The extracts were removed by aspiration and the plate was incubated with biotinylated anti-phosphotyrosine antibody, PT66 (Sigma) and then with HRP (Horseradish Peroxidase)-labeled streptavidin (PIERCE). The optical density at 450 nm derived from HRP catalyzed TMB was measured with an ARVO multilabel counter. (Wallac Berthold Japan). The percent inhibition of activity was calculated relative to blank control wells. The concentration of test compound that inhibits 50% of activity (IC50) was interpolated using nonlinear regression (Levernberg-Marquardt) and the equation, y=Vmax (1−x/(K+x))+Y2, where “K” was equal to the IC50. The IC50 values were converted to pIC50 values, i.e., −log IC50 in Molar concentration.

[3] = test system: Human umbilical cord endothelial cells (HUVEC); assay: VEGF-driven cellular proliferation assay: BrdU incorporation assay (VEGF-C); type: cell-based; design: key to VEGF-C: + = pIC50 of 5.0–6.0; ++ = pIC50 of 6.0–7.0; +++ = pIC50 of > 7.0; − = a negative or inconclusive result; details: for IC50: Homo sapiens
Description: VFGF-driven Cellular Proliferation Assay: BrdU Incorporation Assay (VEGF-C)
Human umbilical cord endothelial cells (HUVEC, Clonetics, CC2519) were passaged in Type I collagen-coated 100-mm petridishes in EGM-MV medium (Clonetics, CC3125) at 37° C. in a humidified 5% CO2, 95% air incubator. (HUVEC passaged more than 6 times in vitro were discarded and not subjected to assaying.) The cells were harvested using trypsin/EDTA, counted using a haemocytometer and plated at 5000 cells/well in a Type I-collagen coated 96-well plate (Becton Dickinson, 354407) in M199 medium (Gibco BRL, 12340-030) containing 5% FBS (Hyclone, A 1115-L) and gentamicin (at 50 μg/ml, Gibco BRL). After incubation overnight at 37° C., the media were replaced with 100 μl of M199 serum-free medium containing compounds at various concentrations with 0.6% DMSO and gentamicin. The compounds were diluted in serum-free M199 medium from 10 mM stock solutions prepared in 100% DMSO. After a 30 min incubation at 37° C., the cells were fed with 100 μl of serum-free M199 medium containing gentamicin, 0.2% culture-grade bovine serum albumin (BSA, Sigma A1993) and 20 ng/ml of VEGF (R&D systems, 293-VE) or 0.6 ng/ml of basic FGF (R&D systems, 233-FB), and cultured at 37° C. for another 24 h. The cells were pulsed with bromodeoxyuridine (BrdU at 10 μM in serum-free M199) at 37° C. for an additional 24 h. The incorporation of BrdU into the proliferating HUVEC were analyzed using BrdU Cell Proliferation ELISA (Roche Molecular Biochemicals, 1647229) according to the manufacturer's protocols. The optical density at 450 nm was measured with a multilabel counter (ARVO SX, Wallac). The percent inhibition of cell growth was calculated relative to blank control wells. The concentration of test compound that inhibits 50% of cell growth (IC50) was interpolated using nonlinear regression (Levernberg-Marquardt) and the equation, y=Vmax (1−x/(K+x))+Y2, where “K” was equal to the IC50. The IC50, values were converted to pIC50 values, i.e., −log IC50 in Molar concentration.

GST-VEGFR2 = molecular target: T3, GST-VEGFR2 (Homo sapiens, UniProt P35968); assay: VEGF-R2 enzyme assay (VEGF-E), LANCE method; type: biochemical; details: 75 μM ATP
T3 construct: GST-VEGFR2, baculovirus expressed recombinant constructs of the intracellular domains of human TIE2 tagged by GST; made in house
T3 sequence (P35968 786-1356 limits assumed): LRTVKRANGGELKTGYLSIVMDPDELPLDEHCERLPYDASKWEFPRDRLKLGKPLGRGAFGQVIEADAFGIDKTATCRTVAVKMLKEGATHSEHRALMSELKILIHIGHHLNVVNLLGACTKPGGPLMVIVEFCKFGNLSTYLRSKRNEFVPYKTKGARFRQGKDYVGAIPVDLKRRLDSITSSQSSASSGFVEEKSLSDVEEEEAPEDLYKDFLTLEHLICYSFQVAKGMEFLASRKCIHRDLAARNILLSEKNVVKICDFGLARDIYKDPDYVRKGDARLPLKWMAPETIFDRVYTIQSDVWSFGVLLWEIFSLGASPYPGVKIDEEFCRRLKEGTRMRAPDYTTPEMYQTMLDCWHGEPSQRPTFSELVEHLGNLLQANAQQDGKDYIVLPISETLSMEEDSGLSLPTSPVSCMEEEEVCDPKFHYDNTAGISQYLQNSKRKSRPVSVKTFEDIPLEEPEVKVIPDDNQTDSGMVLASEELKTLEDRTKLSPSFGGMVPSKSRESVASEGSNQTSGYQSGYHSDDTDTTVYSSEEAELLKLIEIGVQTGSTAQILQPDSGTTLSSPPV
Description: VEGF-R2 Enzyme Assay (VEGF-E)
The VEGF enzyme assay used the LANCE method (Wallac) and GST-VEGFR2, baculovirus expressed recombinant constructs of the intracellular domains of human […] tagged by GST. […] The reaction was stopped by the addition of EDTA (final concentration 50 mM). Streptavidin linked-APC (allophycocyanin, Molecular Probe) and Europium-labeled anti-phosphorylated tyrosine antibody (Wallac) were then added at the final concentration of 15 nM and 1 nM, respectively. The APC signal was measured using an ARVO multilabel counter (Wallac Berthold, Japan). The percent inhibition of activity was calculated relative to blank control wells. The concentration of test compound that inhibits 50% of activity (IC50) was interpolated using nonlinear regression (Levernberg-Marquardt) and the equation, y=Vmax (1−x/(K+x))+Y2, where “K” was equal to the IC50. The IC50 values were converted to pIC50 values, i.e., −log IC50 in Molar concentration.

T1 sequence (Q02763 762-1104): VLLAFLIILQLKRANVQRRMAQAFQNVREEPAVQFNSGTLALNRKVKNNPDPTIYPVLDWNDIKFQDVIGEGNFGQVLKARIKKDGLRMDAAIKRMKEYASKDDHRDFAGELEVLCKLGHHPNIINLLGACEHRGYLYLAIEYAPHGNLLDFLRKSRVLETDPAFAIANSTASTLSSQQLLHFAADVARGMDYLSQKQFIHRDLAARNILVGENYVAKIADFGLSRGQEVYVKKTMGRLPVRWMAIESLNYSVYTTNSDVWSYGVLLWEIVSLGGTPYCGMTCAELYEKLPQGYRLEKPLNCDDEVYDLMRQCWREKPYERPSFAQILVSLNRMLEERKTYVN

SMILES	IC50 [1] [nM]	IC50 [2] [nM]	IC50 (GST-VEGFR2) [nM]	VEGF-E (GST-VEGFR2)	IC50 [3] [nM]	VEGF-C [3]
COC(=O)Nc1nc2ccc(Sc3ccc(NC(=O)Nc4cc(C(F)(F)F)cc(C(F)(F)F)c4)cc3)cc2[nH]1 [Example 3, Methyl N-(5-(4-((3,5-di(trifluoromethyl)phenyl)aminocarbonylamino)phenylthio)-1H-benzimidazol-2-yl)carbamate]	100 to 1000		< 100			−
O=C(Nc1ccc(Oc2ccc3[nH]c(NC(=O)c4ccco4)nc3c2)cc1)Nc1cc(C(F)(F)F)ccc1F [Example 27, N-(5-(4-((2-Fluoro-5-(trifluoromethyl)phenyl)aminocarbonylamino)phenoxy)-1H-benzimidazol-2-yl)(2-fury)formamide]					100 to 1000	
COC(=O)Nc1nc2c(Br)cc(Oc3ccc(NC(=O)Nc4cc(C(F)(F)F)ccc4F)cc3)cc2s1.Cl [Example 65]						−
COC(=O)Nc1nc2ccc(Sc3ccc(NC(=O)Nc4cc([N+](=O)[O-])ccc4C)cc3)cc2[nH]1 [Example 6, Methyl N-(5-(4-((2-methyl-5-nitrophenyl)aminocarbonylamino)phenylthio)-1H-benzimidazol-2-yl)carbamate]	< 100		1000 to 10000			−
COC(=O)Nc1nc2cc(Oc3ccc(NC(=S)Nc4cccc(OC)c4)cc3)ccc2[nH]1 [Example 185, Methyl N-(5-(4-((3-methoxyphenyl)aminothiocarbonylamino)phenoxy)-1H-benzimidazol-2-yl)carbamate]			100 to 1000		1000 to 10000	
CCc1cccc(NC(=O)Nc2ccc(Sc3ccc4nc(NC(=O)OC)[nH]c4c3)cc2)c1 [Example 7, Methyl N-(5-(4-((3-ethylphenyl)aminocarbonylamino)phenylthio)-1H-benzimidazol-2-yl)carbamate]	< 100			−		−
CC(=O)Nc1nc2cc(Oc3ccc(NC(=O)Nc4cc(C(F)(F)F)ccc4F)cc3)ccc2[nH]1 [Example 25, N-(5-(4-((2-Fluoro-5-(trifluoromethyl)phenyl)aminocarbonylamino)phenoxy)-1H-benzimidazol-2-yl)acetamide]					< 100	
COC(=O)Nc1nc2ccc(Sc3ccc(NC(=O)Nc4cc(C(F)(F)F)ccc4F)cc3)cc2[nH]1 [Example 9, Methyl N-(5-(4-((2-fluoro-5-(trifluoromethyl)phenyl)aminocarbonylamino)phenylthio)-1H-benzimidazol-2-yl)carbamate]						−

Further lines, with some results ahead:

IC50 [1] [nM]	IC50 [2] [nM]	IC50 (GST-VEGFR2) [nM]	VEGF-E (GST-VEGFR2)	SMILES	IC50 [3] [nM]	VEGF-C [3]
< 100	100 to 1000			COC(=O)Nc1nc2cc(Oc3cccc(NC(=O)Nc4cccc(C(F)(F)F)c4)c3)ccc2[nH]1 [Example 20, Methyl N-(5-(3-((3-(trifluoromethyl)phenyl)aminocarbonylamino)phenoxy)-1H-benzimidazol-2-yl)carbamate]	< 100	
< 100	< 100			COC(=O)Nc1nc2ccc(Oc3ccc(NC(=O)Nc4cc(C(F)(F)F)ccc4Cl)cc3)cc2s1 [Example 76, Methyl N-(6-(4-((2-chloro-5-(trifluoromethyl)phenyl)aminocarbonylamino)phenoxy)benzthiazol-2-yl)carbamate]		−
< 100	< 100			CN1CCN(CC(=O)Nc2nc3ccc(Oc4ccc(NC(=O)Nc5cc(C(F)(F)F)ccc5F)cc4)cc3[nH]2)CC1 [Example 101, N-(5-(4-((2-Fluoro-5-(trifluoromethyl)phenyl)aminocarbonylamino)phenoxy)-1H-benzimidazol-2-yl)(4-methyl-1-piperazino)acetamide]	< 100	
< 100		< 100		COC(=O)Nc1nc2ccc(Sc3ccc(NC(=O)Nc4cc([N+](=O)[O-])ccc4F)cc3)cc2[nH]1 [Example 8, Methyl N-(5-(4-((2-fluoro-5-nitrophenyl)aminocarbonylamino)phenylthio)-1H-benzimidazol-2-yl)carbamate]		−
< 100	< 100			COC(=O)Nc1nc2cc(Oc3ccc(NC(=O)Nc4cccc(SC(F)(F)F)c4)cc3)ccc2[nH]1 [Example 41, Methyl N-(5-(4-((3-(trifluoromethylthio)phenyl)aminocarbonylamino)phenoxy)-1H-benzimidazol-2-yl)carbamate]		−
< 100	< 100			CS(=O)(=O)n1c(N)nc2ccc(Oc3ccc(NC(=O)Nc4cc(C(F)(F)F)ccc4F)cc3)cc21 [Example 23]	100 to 1000	
< 100	100 to 1000			CCc1cccc(NC(=O)Nc2ccc(Oc3ccc4[nH]c(NC(=O)OC)nc4c3)cc2)c1 [Example 11, Methyl N-(5-(4-((3-ethylphenyl)aminocarbonylamino)phenoxy)-1H-benzimidazol-2-yl)carbamate]		−
		< 100		COC(=O)Nc1nc2ccc(Oc3ccc(NC(=O)Nc4cc(C(F)(F)F)ccc4F)cc3)cc2[nH]1 [Example 10, Methyl N-(5-(4-((2-fluoro-5-(trifluoromethyl)phenyl)aminocarbonylamino)phenoxy)-1H-benzimidazol-2-yl)carbamate]	< 100	
